# Reference: US20230043863A1, “HETEROAROMATIC DERIVATIVES FOR USE AS REGULATOR, PREPARATION METHOD THEREFOR AND USE THEREOF” (JIANGSU HANSOH PHARMACEUTICAL GROUP CO., LTD., priority 2018, published 2023)
# Read-outs that look alike come from different tables or passages of the source.
# What was measured:
# [1] = biological target: JAK1 (Homo sapiens, UniProt P23458); test: JAK kinase activity inhibition, TR-FRET (JAK1); type: biochemical; details: TR-FRET kinase assay
# Method in brief: (§1)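 TR-FRET read (≈620 and 665 nm) after EDTA quench and 1-24 h antibody detection at RT. Kinase 0.1-20 nM, peptide substrate + ATP, 0.5-5 h RT reaction in HEPES 50-250 mM, MgCl2 5-20 mM. IC50 from 4-parameter fit vs DMSO and no-kinase controls.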
# [2] = biological target: TYK2 (Homo sapiens, UniProt P29597); test: JAK kinase activity inhibition, TR-FRET (TYK2); type: biochemical; details: TR-FRET kinase assay
# Method in brief: as §1
# [3] = system: JAK-STAT signal pathway of U266 cells; test: Inhibition of cellular JAK-STAT signal pathway (STAT3 phosphorylation) in U266 cells; type: cell-based, human; details: Homo sapiens, U-266, INF-a 1000 U/mL stimulation
# Method in brief: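 U266 cells (100-300 K/well) preincubated 2 h at room temperature with serially diluted compound, then stimulated 15 min with IFN-α at 1000 U/mL final. After lysis, STAT3 phosphorylation read by LANCE Ultra TR-FRET (Eu antibody 0.5 nM, ULight antibody 5 nM, overnight) at 665 nm; IC50 from 4-parameter fit of inhibition versus DMSO and negative controls.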
# [4] = Balb/C mouse pharmacokinetics (plasma, colon, ileum); type: in vivo; details: male, po, Balb/C mice, p.o. 5 mg/kg; for Cmax: read-out: Blood concentration Cmax; for AUC(0-t): read-out: Curve area AUC0-t; for MRT: read-out: Mean detention time MRT; for Tmax: read-out: Time to peak tmax; for AUC(0-inf): read-out: Curve area AUC0-∞; for half-life: read-out: Half life period t1/2 (converted)
# Excerpt: Balb/C mouse was used as the test animal, the pharmacokinetic behavior in mice (plasma and colon, ileum tissue) was studied after oral administering the embodiment 1, embodiment 60, embodiment 169, embodiment 170, embodiment 171, embodiment 179, embodiment 191, embodiment 213, embodiment 214, embodiment 237, embodiment 238, embodiment 244, embodiment 246, embodiment 247, embodiment 257, embodiment 260, embodiment 262, embodiment 263, embodiment 267, embodiment 277, embodiment 278, embodiment 279, embodiment 288, embodiment 295, embodiment 299 and embodiment 301 at a dose of 5 mg/kg. After analyzing the drug concentration in the colon and ileum, the ratio of the drug concentration in the colon to that in ileum, and the ratio of the drug concentration in the colon to that in the plasma, the compounds with excellent PK were selected for further research.
# 12 Balb/C mice in each group, male, Shanghai Jiesjie Experimental Animal Co., Ltd., animal production license number (SCXK (Shanghai) 2013-0006 N0.311620400001794).
# 12 Balb/C mice in each group, male; p.o. after one night fast; the dose was 5 mg/kg; the administration volume was 10 mL/kg.
# At 0, 0.5, 1, 2, 3, 5 and 7 hours before and after the administration, the mice were executed by CO2 and 0.2 mL of blood was collected from the heart, placed in an EDTA-K2 test tube, and centrifuged at 6000 rpm at 4° C. for 6 minutes to separate the plasma, which was then stored at −80° C. The ileum was taken close to the cecum end with a length of about 4-5 cm, and the colon was also taken close to the cecum end with a length of about 2-3 cm, weighed and placed in a 2 mL centrifuge tube, then stored at −80° C.
# 1) 40 uL of plasma sample was precipitated by adding 160 uL of acetonitrile, mixed and centrifuged at 3500×g for 5-20 minutes.
# 2) 30 μL of plasma and intestinal homogenate sample were precipitated by adding 90 of acetonitrile containing internal standard (100 ng/mL), mixed and centrifuged at 13000 rpm for 8 minutes.
# 3) 70 μL of the supernatant solution after treatment was collected and 70 μL of water was added thereto, vortexed and mixed for 10 minutes, and then 20 μL was collected to analyze the concentration of the test compound by LC/MS/MS. LC/MS/MS analysis instrument: AB Sciex API 4000 Qtrap.
# Liquid phase conditions: Shimadzu LC-20AD Pump
# Chromatographic column: Agilent ZORBAX XDB-C18 (50×2.1 mm, 3.5 μm) mobile phase: 0.1% formic acid aqueous solution as A solution, acetonitrile as B solution
# Elution time: 0-4.0 minutes, the eluent is as follows:
# The main pharmacokinetic parameters were calculated with WinNonlin 6.1, and the results of mouse pharmacokinetic experiments are shown in Table 3:
# NA refers to none detected or not being tested (the detection limit of blood concentration was 1 ng/mL, when the Cmax in the blood test is NA, then NA in the blood test index refers to none detected; when the Cmax in the blood test is higher than the quantitative limit 1 ng/mL, then NA in the blood test index refers to not being tested; NA in the tissues (colon and ileum) refers to not being tested).
# TYK2, sequence (P29597 whole entry): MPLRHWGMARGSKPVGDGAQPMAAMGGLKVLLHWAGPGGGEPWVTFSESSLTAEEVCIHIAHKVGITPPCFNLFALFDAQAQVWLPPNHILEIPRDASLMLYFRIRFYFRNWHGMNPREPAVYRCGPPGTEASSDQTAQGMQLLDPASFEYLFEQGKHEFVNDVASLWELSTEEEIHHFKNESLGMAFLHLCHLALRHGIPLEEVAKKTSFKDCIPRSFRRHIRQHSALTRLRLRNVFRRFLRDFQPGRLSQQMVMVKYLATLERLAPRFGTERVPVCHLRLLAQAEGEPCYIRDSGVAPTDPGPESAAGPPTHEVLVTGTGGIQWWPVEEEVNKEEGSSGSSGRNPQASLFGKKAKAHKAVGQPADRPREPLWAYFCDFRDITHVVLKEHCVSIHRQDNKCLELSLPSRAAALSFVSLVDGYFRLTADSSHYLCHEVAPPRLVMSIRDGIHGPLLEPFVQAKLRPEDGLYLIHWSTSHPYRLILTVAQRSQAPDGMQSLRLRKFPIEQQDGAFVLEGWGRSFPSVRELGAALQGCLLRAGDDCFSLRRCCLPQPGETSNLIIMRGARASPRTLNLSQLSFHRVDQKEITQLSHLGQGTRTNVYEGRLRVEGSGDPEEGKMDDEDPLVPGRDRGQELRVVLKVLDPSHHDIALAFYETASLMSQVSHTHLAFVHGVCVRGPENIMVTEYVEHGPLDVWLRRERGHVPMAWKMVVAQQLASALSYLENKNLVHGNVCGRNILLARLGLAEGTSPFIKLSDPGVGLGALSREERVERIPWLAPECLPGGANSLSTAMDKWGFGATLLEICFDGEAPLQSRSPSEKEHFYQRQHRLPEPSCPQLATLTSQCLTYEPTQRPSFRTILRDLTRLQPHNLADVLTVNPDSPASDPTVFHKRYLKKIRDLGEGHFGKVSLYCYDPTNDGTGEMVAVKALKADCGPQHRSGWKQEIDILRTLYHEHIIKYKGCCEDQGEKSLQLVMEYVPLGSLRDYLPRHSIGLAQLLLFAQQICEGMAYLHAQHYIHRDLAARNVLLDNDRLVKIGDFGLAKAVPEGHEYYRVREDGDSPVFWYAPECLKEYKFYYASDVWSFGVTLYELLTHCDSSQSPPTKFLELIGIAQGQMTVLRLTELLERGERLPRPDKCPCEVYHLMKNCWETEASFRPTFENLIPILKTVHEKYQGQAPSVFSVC
# JAK1, sequence (P23458 whole entry): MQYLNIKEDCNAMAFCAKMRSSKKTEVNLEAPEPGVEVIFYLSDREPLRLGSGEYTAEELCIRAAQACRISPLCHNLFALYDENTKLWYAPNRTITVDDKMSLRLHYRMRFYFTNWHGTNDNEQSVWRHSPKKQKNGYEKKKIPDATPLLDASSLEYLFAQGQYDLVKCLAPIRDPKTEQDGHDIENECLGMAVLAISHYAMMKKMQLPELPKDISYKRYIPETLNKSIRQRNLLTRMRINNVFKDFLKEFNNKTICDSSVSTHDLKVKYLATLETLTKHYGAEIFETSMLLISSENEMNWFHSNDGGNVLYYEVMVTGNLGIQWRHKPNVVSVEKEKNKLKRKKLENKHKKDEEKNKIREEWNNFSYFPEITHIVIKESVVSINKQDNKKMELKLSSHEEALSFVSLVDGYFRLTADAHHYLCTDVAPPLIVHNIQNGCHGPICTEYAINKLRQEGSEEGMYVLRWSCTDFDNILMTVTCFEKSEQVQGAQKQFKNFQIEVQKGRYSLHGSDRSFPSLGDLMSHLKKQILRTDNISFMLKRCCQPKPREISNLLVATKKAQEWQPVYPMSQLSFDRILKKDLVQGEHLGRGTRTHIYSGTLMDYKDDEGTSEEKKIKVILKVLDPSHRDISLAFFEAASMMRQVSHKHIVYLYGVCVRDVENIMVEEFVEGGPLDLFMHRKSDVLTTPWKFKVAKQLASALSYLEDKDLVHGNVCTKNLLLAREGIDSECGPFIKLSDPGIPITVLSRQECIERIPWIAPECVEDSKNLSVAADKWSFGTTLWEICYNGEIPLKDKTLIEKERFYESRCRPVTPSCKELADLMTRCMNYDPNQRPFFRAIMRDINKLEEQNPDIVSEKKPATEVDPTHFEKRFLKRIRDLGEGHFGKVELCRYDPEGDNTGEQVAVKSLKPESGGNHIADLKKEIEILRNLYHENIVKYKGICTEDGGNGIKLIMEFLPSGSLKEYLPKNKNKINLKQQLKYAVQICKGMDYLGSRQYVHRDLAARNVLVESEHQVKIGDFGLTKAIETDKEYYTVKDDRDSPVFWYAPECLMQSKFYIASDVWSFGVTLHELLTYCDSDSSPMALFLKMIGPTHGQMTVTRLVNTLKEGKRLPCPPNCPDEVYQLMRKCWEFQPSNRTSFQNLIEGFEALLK
SMILES,IC50 [1],IC50 [2],IC50 [3],"Cmax ([4]; plasma, blood)","AUC(0-t) ([4]; plasma, blood)","MRT ([4]; plasma, blood)","Tmax ([4]; plasma, blood)",Cmax ([4]; colon),AUC(0-t) ([4]; colon),MRT ([4]; colon),Tmax ([4]; colon),Cmax ([4]; ileum),AUC(0-t) ([4]; ileum),AUC(0-inf) ([4]; ileum),half-life ([4]; ileum),MRT ([4]; ileum),Tmax ([4]; ileum),"AUC(0-inf) ([4]; plasma, blood)","half-life ([4]; plasma, blood)",other results
"Cc1cc(Nc2nc(N[C@@H]3C[C@H]4CCC[C@@H](C3)N4C(=O)c3nccn3C)nc3sccc23)n[nH]1 [Embodiment 263, (1-methyl-1H-imidazol-2-yl) ((3-exo)-3-((4-((5-methyl-1H-pyrazol-3-yl)amino)thieno[2,3-d]pyrimidin-2-yl)amino)-9-azabicyclo[3.3.1]non-9-yl)methanone]",0.11 nM,0.22 nM,4.07 nM,12.7 ng/mL,57.6 ng·h/mL,3.51 h,3 h,5540 ng/mL,15500 ng·h/mL,3.58 h,3 h,5490 ng/mL,9910 ng·h/mL,9940 ng·h/mL,49.2 min,1.36 h,1 h,–,–,–
"Cc1cc(Nc2nc(N[C@@H]3C[C@H]4CC[C@@H](C3)N4CCC#N)nc3cc(N4CCOCC4)ccc23)n[nH]1 [Embodiment 191, 3-((3-exo)-3-((4-((5-methyl-1H-pyrazol-3-yl)amino)-7-morpholinoquinazolin-2-yl)amino)-8-azabicyclo[3.2.1]oct-8-yl)propionitrile]",0.41 nM,0.94 nM,2.8 nM,0.81 ng/mL,–,–,1 h,3350 ng/mL,10600 ng·h/mL,4.59 h,5 h,32600 ng/mL,51500 ng·h/mL,51700 ng·h/mL,83.4 min,1.13 h,1 h,–,–,–
"Cc1cc(Nc2nc(N[C@@H]3C[C@H]4CCC[C@@H](C3)N4C(=O)CN3CCOCC3)nc3ccsc23)n[nH]1 [Embodiment 288, 1-((3-exo)-3-((4-((5-methyl-1H-pyrazol-3-yl)amino)thieno[3,2-d]pyrimidin-2-yl)amino)-9-azabicyclo[3.3.1]non-9-yl)-2-morpholinoethane-1-one]",0.27 nM,8.09 nM,4.03 nM,11 ng/mL,21.5 ng·h/mL,2.5 h,2 h,676 ng/mL,2900 ng·h/mL,3.91 h,3 h,7380 ng/mL,17600 ng·h/mL,–,–,2.89 h,3 h,24.5 ng·h/mL,156 min,–
"Cc1cc(Nc2nc(N[C@@H]3C[C@@H]4CN(CCC#N)C[C@@H]4C3)nc3ccsc23)n[nH]1 [Embodiment 299, 3-(cis-5-((4-((5-methyl-1H-pyrazol-3-yl)amino)thieno[3,2-d]pyrimidin-2-yl)amino)hexahydrocyclopentadieno[c]pyrrole-2(1H)-yl)propionitrile]",0.28 nM,0.56 nM,2.46 nM,6.01 ng/mL,10.6 ng·h/mL,1.92 h,0.5 h,295 ng/mL,948 ng·h/mL,4.94 h,7 h,531 ng/mL,1320 ng·h/mL,1350 ng·h/mL,53.4 min,3.37 h,3 h,17.8 ng·h/mL,226 min,–
"Cc1cc(Nc2nc(N[C@@H]3C[C@H]4CCC[C@@H](C3)N4C(=O)c3ccncc3)nc3sccc23)n[nH]1 [Embodiment 262, ((3-exo)-3-((4-((5-methyl-1H-pyrazol-3-yl)amino)thieno[2,3-d]pyrimidin-2-yl)amino)-9-azabicyclo[3.3.1]non-9-yl)(pyridin-4-yl)methanone]",0.07 nM,1.35 nM,9.47 nM,8.01 ng/mL,13.4 ng·h/mL,1.77 h,2 h,1240 ng/mL,3940 ng·h/mL,3.72 h,3 h,22300 ng/mL,40200 ng·h/mL,40300 ng·h/mL,29.4 min,1.34 h,1 h,–,–,AUC(0-inf) ([4]; colon): 4520 ng·h/mL; half-life ([4]; colon): 101 min
"Cc1cc(Nc2nc(N[C@@H]3C[C@H]4CC[C@@H](C3)N4C(=O)CN3CCOCC3)nc3sccc23)n[nH]1 [Embodiment 244, 1-((3-exo)-3-((4-((5-methyl-1H-pyrazol-3-yl)amino)thieno[2,3-d]pyrimidin-2-yl)amino)-8-azabicyclo[3.2.1]oct-8-yl)-2-morpholinoethane-1-one]",1.15 nM,2.45 nM,3.79 nM,12 ng/mL,18 ng·h/mL,2.12 h,3 h,1190 ng/mL,4900 ng·h/mL,4.38 h,7 h,9010 ng/mL,22600 ng·h/mL,22600 ng·h/mL,39.6 min,1.83 h,1 h,–,–,–
"Cc1cc(Nc2nc(N[C@@H]3C[C@H]4CC[C@@H](C3)N4CCC#N)nc3c2cnn3C)n[nH]1 [Embodiment 295, 3-((3-exo)-3-((1-methyl-4-((5-methyl-1H-pyrazol-3-yl)amino)-1H-pyrazolo[3,4-d]pyrimidin-6-yl)amino)-8-azabicyclo[3.2.1]oct-8-yl)propionitrile]",0.3 nM,10.8 nM,3.63 nM,6.54 ng/mL,10.4 ng·h/mL,1.77 h,2 h,1030 ng/mL,3390 ng·h/mL,3.82 h,3 h,4300 ng/mL,10700 ng·h/mL,–,–,2.69 h,3 h,–,–,–
"Cc1cc(Nc2nc(NC3CCN(CCC#N)CC3)nc3sccc23)n[nH]1 [Embodiment 301, 3-(4-((4-((5-methyl-1H-pyrazol-3-yl)amino)thieno[2,3-d]pyrimidin-2-yl)amino)piperidin-1-yl)propionitrile]",1.64 nM,0.45 nM,1.26 nM,69.4 ng/mL,143 ng·h/mL,1.65 h,1 h,1500 ng/mL,4240 ng·h/mL,4.74 h,5 h,21100 ng/mL,35300 ng·h/mL,35300 ng·h/mL,36 min,1.23 h,1 h,145 ng·h/mL,64.2 min,–
